Test results: the NIST ThermoML archive (doi:10.1021/je400630f)
Where “and” joins values, the source holds several entries; their conditions need not be identical. Equal entries are not always repeated. Numbers after ± are expanded uncertainties.

Experiments:
[1] = 100 kPa, Liquid; for viscosity: Capillary tube (Ostwald / Ubbelohde) method
[2] = xn = mol fraction of the nth substance listed; conditions: 100 kPa, Liquid, x1 = 1; for viscosity: Capillary tube (Ostwald / Ubbelohde) method

Row | Compound | mass density ([1]; 283.15 K) [kg/m3] | viscosity ([1]; 283.15 K) [mPa·s] | mass density ([1]; 293.15 K) [kg/m3] | viscosity ([1]; 293.15 K) [mPa·s] | mass density ([1]; 298.15 K) [kg/m3] | viscosity ([1]; 298.15 K) [mPa·s] | mass density ([1]; 303.15 K) [kg/m3] | viscosity ([1]; 303.15 K) | mass density ([1]; 313.15 K) [kg/m3] | viscosity ([1]; 313.15 K) [mPa·s] | viscosity ([2]; 283.15 K) [mPa·s] | mass density ([2]; 283.15 K) [kg/m3] | viscosity ([2]; 293.15 K) [mPa·s] | mass density ([2]; 293.15 K) [kg/m3] | viscosity ([2]; 298.15 K) [mPa·s] | mass density ([2]; 298.15 K) [kg/m3] | viscosity ([2]; 303.15 K) [mPa·s] | mass density ([2]; 303.15 K) [kg/m3] | viscosity ([2]; 313.15 K) [mPa·s] | mass density ([2]; 313.15 K) [kg/m3]
1 | CCCCO [butan-1-ol] | 817.3 ± 1.2 | 3.822 ± 0.079 | 809.6 ± 1.3 | 2.859 ± 0.059 | 805.8 ± 1.3 | 2.558 ± 0.053 | 802.1 ± 1.3 | 2.236 ± 0.046 mPa·s | 794.3 ± 1.3 | 1.736 ± 0.036 |  |  |  |  |  |  |  |  |  | 
2 | CCCCCCCCCCO [decan-1-ol] | 836.6 ± 1.2 | 22.06 ± 0.45 | 829.9 ± 1.2 | 14.5 ± 0.3 | 826.5 ± 1.2 | 11.47 ± 0.24 | 823 ± 1.2 | 9.61 ± 0.2 mPa·s | 816.2 ± 1.3 | 6.9 ± 0.14 |  |  |  |  |  |  |  |  |  | 
3 | CCO [ethanol] | 798 ± 1.3 | 1.475 ± 0.031 | 789.5 ± 1.4 | 1.196 ± 0.025 | 785.2 ± 1.4 | 1.102 ± 0.023 | 781.1 ± 1.4 | 0.996 ± 0.021 mPa·s and 0.994 ± 0.021 mPa·s | 772.3 ± 1.4 | 0.842 ± 0.018 |  |  |  |  |  |  |  |  |  | 
4 | CCO [ethanol] + CCCCCCCCCCO |  |  |  |  |  |  |  |  |  |  | 1.475 ± 0.031 | 798 ± 1.3 | 1.196 ± 0.025 | 789.5 ± 1.4 | 1.102 ± 0.023 | 785.2 ± 1.4 | 0.996 ± 0.021 | 781.1 ± 1.4 | 0.842 ± 0.018 | 772.3 ± 1.4
5 | CCO [ethanol] + CCCCCCCCCO |  |  |  |  |  |  |  |  |  |  | 1.475 ± 0.031 | 798 ± 1.3 | 1.196 ± 0.025 | 789.5 ± 1.4 | 1.102 ± 0.023 | 785.2 ± 1.4 | 0.996 ± 0.021 | 781.1 ± 1.4 | 0.842 ± 0.018 | 772.3 ± 1.4
6 | CCO [ethanol] + CCCCCCCCO |  |  |  |  |  |  |  |  |  |  | 1.475 ± 0.031 | 798 ± 1.3 | 1.196 ± 0.025 | 789.5 ± 1.4 | 1.102 ± 0.023 | 785.2 ± 1.4 | 0.994 ± 0.021 | 781.1 ± 1.4 | 0.842 ± 0.018 | 772.3 ± 1.4
7 | CCO [ethanol] + CCCCCCCO |  |  |  |  |  |  |  |  |  |  | 1.475 ± 0.031 | 798 ± 1.3 | 1.196 ± 0.025 | 789.5 ± 1.4 | 1.102 ± 0.023 | 785.2 ± 1.4 | 0.996 ± 0.021 | 781.1 ± 1.4 | 0.842 ± 0.018 | 772.3 ± 1.4

Other lines, results leading:

Row | mass density ([1]; 283.15 K) [kg/m3] | viscosity ([1]; 283.15 K) [mPa·s] | mass density ([1]; 293.15 K) [kg/m3] | viscosity ([1]; 293.15 K) [mPa·s] | mass density ([1]; 298.15 K) [kg/m3] | viscosity ([1]; 298.15 K) [mPa·s] | mass density ([1]; 303.15 K) [kg/m3] | viscosity ([1]; 303.15 K) | mass density ([1]; 313.15 K) [kg/m3] | viscosity ([1]; 313.15 K) [mPa·s] | viscosity ([2]; 283.15 K) [mPa·s] | mass density ([2]; 283.15 K) [kg/m3] | viscosity ([2]; 293.15 K) [mPa·s] | mass density ([2]; 293.15 K) [kg/m3] | viscosity ([2]; 298.15 K) [mPa·s] | mass density ([2]; 298.15 K) [kg/m3] | viscosity ([2]; 303.15 K) [mPa·s] | mass density ([2]; 303.15 K) [kg/m3] | viscosity ([2]; 313.15 K) [mPa·s] | mass density ([2]; 313.15 K) [kg/m3] | Compound
8 |  |  |  |  |  |  |  |  |  |  | 1.475 ± 0.031 | 798 ± 1.3 | 1.196 ± 0.025 | 789.5 ± 1.4 | 1.102 ± 0.023 | 785.2 ± 1.4 | 0.996 ± 0.021 | 781.1 ± 1.4 | 0.842 ± 0.018 | 772.3 ± 1.4 | CCO [ethanol] + CCCCCO
9 |  |  |  |  |  |  |  |  |  |  | 1.475 ± 0.031 | 798 ± 1.3 | 1.196 ± 0.025 | 789.5 ± 1.4 | 1.102 ± 0.023 | 785.2 ± 1.4 | 0.996 ± 0.021 | 781.1 ± 1.4 | 0.842 ± 0.018 | 772.3 ± 1.4 | CCO [ethanol] + CCCCO
10 | 829.6 ± 1.3 | 10.15 ± 0.21 | 822.6 ± 1.3 | 7.026 ± 0.15 | 819.1 ± 1.3 | 5.947 ± 0.12 | 815.6 ± 1.3 | 5.041 ± 0.11 mPa·s | 808.4 ± 1.4 | 3.802 ± 0.08 |  |  |  |  |  |  |  |  |  |  | CCCCCCCO [heptan-1-ol]
11 | 835 ± 1.3 | 17.44 ± 0.36 | 828.1 ± 1.3 | 11.63 ± 0.24 | 824.7 ± 1.3 | 9.519 ± 0.2 | 821.3 ± 1.3 | 7.806 ± 0.16 mPa·s | 814.3 ± 1.4 | 5.668 ± 0.12 |  |  |  |  |  |  |  |  |  |  | CCCCCCCCCO [nonan-1-ol]
12 | 832.1 ± 1.2 | 13.49 ± 0.28 | 825.2 ± 1.2 | 9.016 ± 0.19 | 821.9 ± 1.2 | 7.39 ± 0.15 | 818.4 ± 1.3 | 6.306 ± 0.13 mPa·s | 811.4 ± 1.3 | 4.587 ± 0.095 |  |  |  |  |  |  |  |  |  |  | CCCCCCCCO [octan-1-ol]
13 | 822.1 ± 1.3 | 5.417 ± 0.11 | 814.7 ± 1.3 | 3.974 ± 0.083 | 811.2 ± 1.3 | 3.441 ± 0.072 | 807.5 ± 1.3 | 2.99 ± 0.062 mPa·s | 800 ± 1.4 | 2.263 ± 0.047 |  |  |  |  |  |  |  |  |  |  | CCCCCO [pentan-1-ol]
